What is called IC50 is the concentration at which inhibition is half-maximal.

These results are taken from patent publication US20100305113A1, “Substituted Imidazopyridazines as Lipid Kinase Inhibitors” (priority 2007, published 2010).

Common to all, as to type: biochemical
What all share (conditions): Enzymatic Data

One assay deals with T1, PI3K alfa (Homo sapiens, UniProt P42336).
T1 construct: p85(iSH2) fusion partner (same polypeptide; see partner chain) (N); 12x Gly linker (N); His tag (C); made in house; host or cells: baculovirus; Tn5 (Trichoplusia ni) or TiniPro insect cells
Kind of assay: PI3K alfa enzymatic assay (Kinase-Glo luminescence). As to the method: (§1) In a more preferred assay, the kinase reaction is performed in a final volume of 10 μL per well of a low volume non binding CORNING, 384 well black plate (Cat. No. #3676). The final concentrations of ATP and phosphatidyl inositol (PI) in the assay are 1 μM and 10 μg/mL respectively. The reaction is started by the addition of ATP.
(§2) The components of the assay are added per well as follows:
(§3) 50 nL test compounds in 90% DMSO per well, in columns 1-20, 8 concentrations (⅓ and 1/3.33 serial dilution step) in single. • Low control: 50 nL of 90% DMSO in half the wells of columns 23-24 (0.45% in final). • High control: 50 nL of reference compound (e.g. compound of Example 7 in WO 2006/122806, incorporated by reference herein that regard) in the other half of columns 23-24 (2.5 μM in final). • Standard: 50 nL of reference compound as just mentioned diluted as the test compounds in columns 21-22 • 20 mL ‘buffer’ are prepared per assay: • 200 μL of 1M TRIS HCl pH7.5 (10 mM in final) • 60 μL of 1M MgCl2 (3 mM in final) • 500 μL of 2M NaCl (50 mM in final) • 100 μL of 10% CHAPS (0.05% in final) • 200 μL of 100 mM DTT (1 mM in final) • 18.94 mL of nanopure water • 10 mL ‘PI’ are prepared per assay: • 200 μL of 1 mg/ml L-alpha-Phosphatidylinositol (Liver Bovine, Avanti Polar Lipids Cat. No. 840042C MW=909.12) prepared in 3% OctylGlucoside ([…]) • 9.8 mL of ‘buffer’ • 10 mL ‘ATP’ are prepared per assay: • 6.7 μL of 3 mM stock of ATP giving a final concentration of 1 μM per well • 10 mL of ‘buffer’ • 2.5 mL of each PI3K construct are prepared per assay in ‘PI’ with the following final concentration: • 10 nM PI3K alfa BV-1075 • 25 nM beta BV-949 • 10 nM delta BV-1060 • 150 nM gamma BV-950 • 5 μL of ‘PI/PI3K’ are added per well. • 5 μl ‘ATP’ are added per well to start the reaction. • The plates are then incubated at room temperature for 60 minutes (alfa, beta, delta) or 120 minutes (gamma). • The reaction is terminated by the addition of 10 μL Kinase-Glo (Promega Cat. No. #6714). • The assay plates are read after 10 minutes in Synergy 2 reader (BioTek, Vermont USA) with an integration time of 100 milliseconds and sensitivity set to 191. • Output: The High control is around 60′000 counts and the Low control is 30′000 or lower • This luminescence assay gives a useful Z′ ratio between 0.4 and 0.7 The Z′ value is a universal measurement of the robustness of an assay. A Z′ between 0.5 and 1.0 is considered an excellent assay.
(§4) IC50 is determined by a four parameter curve fitting routine that comes aloneg with “excel fit”. A 4 Parameter logistic equation is used to calculate IC50 values (IDBS XLfit) of the percentage inhibition of each compound at 8 concentrations (usually 10, 3.0, 1.0, 0.3, 0.1, 0.030, 0.010 and 0.003 μM). Alternatively, IC50 values are calculated using idbsXLfit model 204, which is a 4 parameter logistic model.

For the next assay, the target named is T2, PI3K beta (Homo sapiens, UniProt P42338).
T2 construct: for the full-length p110-b subunit are generated and fused by overlapping PCR; p85(iSH2) fusion partner (same polypeptide; see partner chain) (N); Gly linker (N); His tag (C); made in house; host or cells: baculovirus; Tn5 (Trichoplusia ni) or TiniPro insect cells
Put plainly: PI3K beta enzymatic assay (Kinase-Glo luminescence). The method, then: as §1, §2, §3
PI3Kβ BV-949 p85(iSH2)-Gly linker-p110b (Full-Length)-C-Term His Tag
as §4

A further assay concerns the target T3, PI3K delta (Homo sapiens, UniProt O00329).
T3 construct: for the full-length p110-d subunit are generated and fused by overlapping PCR; p85(iSH2) fusion partner (same polypeptide; see partner chain) (N); Gly linker (N); His tag (C); made in house; host or cells: baculovirus; Tn5 (Trichoplusia ni) or TiniPro insect cells
Kind of assay: PI3K delta enzymatic assay (Kinase-Glo luminescence). The method, then:
as §1, §2, §3
PI3Kδ BV-1060 p85(iSH2)-Gly Linker-p110d (Full-Length)-C-term His Tact
as §4
(Kinase-Glo reads ATP consumption through a luciferase reaction.)

A further assay deals with T4, PI3K gamma (Homo sapiens, UniProt P48736).
T4 construct: His tag (C); made in house; host or cells: construct from Roger Williams lab (MRC LMB); baculovirus (pVL1393); Tn5 (Trichoplusia ni) or TiniPro insect cells
Put plainly: PI3K gamma enzymatic assay (Kinase-Glo luminescence). The method, then:
as §1, §2, §3, §4

T3 sequence (O00329 with tags, fused parts or gaps limits assumed): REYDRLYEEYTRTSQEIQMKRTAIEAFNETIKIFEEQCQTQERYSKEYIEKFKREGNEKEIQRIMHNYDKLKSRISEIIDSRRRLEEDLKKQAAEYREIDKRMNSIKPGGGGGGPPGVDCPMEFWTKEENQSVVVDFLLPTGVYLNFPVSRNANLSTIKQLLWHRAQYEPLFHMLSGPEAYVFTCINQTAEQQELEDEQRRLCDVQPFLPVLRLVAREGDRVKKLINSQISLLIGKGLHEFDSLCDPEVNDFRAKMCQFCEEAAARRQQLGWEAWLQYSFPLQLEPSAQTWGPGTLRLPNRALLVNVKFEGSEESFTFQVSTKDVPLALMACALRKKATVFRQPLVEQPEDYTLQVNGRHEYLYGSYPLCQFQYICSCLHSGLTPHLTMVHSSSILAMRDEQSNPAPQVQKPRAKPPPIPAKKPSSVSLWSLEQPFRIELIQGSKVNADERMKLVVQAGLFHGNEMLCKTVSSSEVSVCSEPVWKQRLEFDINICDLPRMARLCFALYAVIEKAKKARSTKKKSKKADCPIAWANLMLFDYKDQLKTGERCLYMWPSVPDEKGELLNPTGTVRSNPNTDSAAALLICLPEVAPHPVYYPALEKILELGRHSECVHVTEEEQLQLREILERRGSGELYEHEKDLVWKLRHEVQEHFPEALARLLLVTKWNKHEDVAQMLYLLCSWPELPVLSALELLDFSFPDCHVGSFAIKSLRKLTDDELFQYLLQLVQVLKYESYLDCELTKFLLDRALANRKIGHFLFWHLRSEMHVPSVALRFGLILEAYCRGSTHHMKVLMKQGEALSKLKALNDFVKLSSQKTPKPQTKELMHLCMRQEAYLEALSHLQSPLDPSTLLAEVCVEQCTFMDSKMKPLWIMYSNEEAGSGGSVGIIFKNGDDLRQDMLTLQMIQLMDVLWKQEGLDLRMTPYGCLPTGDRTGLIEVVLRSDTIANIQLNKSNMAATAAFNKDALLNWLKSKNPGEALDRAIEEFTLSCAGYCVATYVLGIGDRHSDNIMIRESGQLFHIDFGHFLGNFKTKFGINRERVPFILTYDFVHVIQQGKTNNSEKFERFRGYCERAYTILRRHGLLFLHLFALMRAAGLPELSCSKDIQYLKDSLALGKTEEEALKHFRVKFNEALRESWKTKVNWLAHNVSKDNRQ
T1 sequence (P42336 with tags, fused parts or gaps limits assumed): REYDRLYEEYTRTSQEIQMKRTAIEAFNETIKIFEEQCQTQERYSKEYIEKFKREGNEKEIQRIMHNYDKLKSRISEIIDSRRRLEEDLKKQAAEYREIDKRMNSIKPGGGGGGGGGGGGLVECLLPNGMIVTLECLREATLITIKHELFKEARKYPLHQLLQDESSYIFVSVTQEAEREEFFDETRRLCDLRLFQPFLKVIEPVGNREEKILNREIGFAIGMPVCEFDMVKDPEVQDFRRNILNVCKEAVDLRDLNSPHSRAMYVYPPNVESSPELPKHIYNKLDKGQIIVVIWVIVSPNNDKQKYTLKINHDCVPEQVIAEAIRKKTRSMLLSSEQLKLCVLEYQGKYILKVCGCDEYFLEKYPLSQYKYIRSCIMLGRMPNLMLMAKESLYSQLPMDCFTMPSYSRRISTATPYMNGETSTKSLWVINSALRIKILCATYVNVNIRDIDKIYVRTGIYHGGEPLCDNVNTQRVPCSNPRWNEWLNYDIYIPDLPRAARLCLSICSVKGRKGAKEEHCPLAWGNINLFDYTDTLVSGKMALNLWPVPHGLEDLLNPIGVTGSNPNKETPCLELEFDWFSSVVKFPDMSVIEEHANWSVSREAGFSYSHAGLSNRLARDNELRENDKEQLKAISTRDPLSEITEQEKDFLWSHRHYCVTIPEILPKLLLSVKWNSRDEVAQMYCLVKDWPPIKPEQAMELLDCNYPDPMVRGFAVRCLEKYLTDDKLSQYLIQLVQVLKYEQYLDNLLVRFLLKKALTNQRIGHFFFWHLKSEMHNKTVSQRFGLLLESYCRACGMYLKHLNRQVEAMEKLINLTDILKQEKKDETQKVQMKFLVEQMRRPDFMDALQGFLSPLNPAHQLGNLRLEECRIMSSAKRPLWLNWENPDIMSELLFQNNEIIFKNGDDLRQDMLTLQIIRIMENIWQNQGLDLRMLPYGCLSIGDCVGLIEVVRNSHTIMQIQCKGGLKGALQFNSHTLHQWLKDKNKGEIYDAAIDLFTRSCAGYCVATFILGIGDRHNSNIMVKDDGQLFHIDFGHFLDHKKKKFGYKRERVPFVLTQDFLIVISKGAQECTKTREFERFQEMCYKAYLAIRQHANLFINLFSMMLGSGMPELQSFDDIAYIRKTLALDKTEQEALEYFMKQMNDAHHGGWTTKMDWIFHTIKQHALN
T2 sequence (P42338 with tags, fused parts or gaps limits assumed): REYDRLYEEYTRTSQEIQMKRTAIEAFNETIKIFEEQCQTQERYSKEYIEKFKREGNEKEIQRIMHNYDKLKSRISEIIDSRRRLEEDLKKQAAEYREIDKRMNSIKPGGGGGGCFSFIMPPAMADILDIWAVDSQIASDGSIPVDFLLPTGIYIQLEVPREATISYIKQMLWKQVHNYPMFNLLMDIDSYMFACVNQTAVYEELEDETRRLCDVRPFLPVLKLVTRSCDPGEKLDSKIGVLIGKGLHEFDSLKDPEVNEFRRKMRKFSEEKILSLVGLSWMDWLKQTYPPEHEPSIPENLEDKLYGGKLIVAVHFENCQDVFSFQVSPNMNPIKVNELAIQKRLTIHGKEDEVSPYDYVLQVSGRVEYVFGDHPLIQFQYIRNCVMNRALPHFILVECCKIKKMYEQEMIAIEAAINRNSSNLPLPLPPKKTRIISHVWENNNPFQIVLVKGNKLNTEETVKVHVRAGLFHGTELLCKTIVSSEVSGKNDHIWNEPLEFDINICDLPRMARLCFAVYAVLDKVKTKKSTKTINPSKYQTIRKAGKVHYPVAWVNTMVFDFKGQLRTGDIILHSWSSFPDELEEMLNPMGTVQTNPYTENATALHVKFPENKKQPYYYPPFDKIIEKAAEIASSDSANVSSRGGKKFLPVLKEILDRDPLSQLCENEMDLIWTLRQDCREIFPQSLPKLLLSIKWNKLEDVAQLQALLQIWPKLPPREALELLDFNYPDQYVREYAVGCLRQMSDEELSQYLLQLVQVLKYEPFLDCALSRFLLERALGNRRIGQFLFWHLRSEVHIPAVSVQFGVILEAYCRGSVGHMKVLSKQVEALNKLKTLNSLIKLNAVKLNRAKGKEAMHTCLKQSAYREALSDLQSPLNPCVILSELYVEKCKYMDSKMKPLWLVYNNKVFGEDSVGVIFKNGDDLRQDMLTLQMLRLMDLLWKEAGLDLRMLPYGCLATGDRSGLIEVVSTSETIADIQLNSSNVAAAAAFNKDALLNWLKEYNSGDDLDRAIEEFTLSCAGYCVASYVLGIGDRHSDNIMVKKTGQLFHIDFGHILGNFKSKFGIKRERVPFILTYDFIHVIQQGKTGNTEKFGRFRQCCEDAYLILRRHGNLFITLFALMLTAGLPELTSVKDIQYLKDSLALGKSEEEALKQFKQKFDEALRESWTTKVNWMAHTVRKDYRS
T4 sequence (P48736 144-1102 limits assumed): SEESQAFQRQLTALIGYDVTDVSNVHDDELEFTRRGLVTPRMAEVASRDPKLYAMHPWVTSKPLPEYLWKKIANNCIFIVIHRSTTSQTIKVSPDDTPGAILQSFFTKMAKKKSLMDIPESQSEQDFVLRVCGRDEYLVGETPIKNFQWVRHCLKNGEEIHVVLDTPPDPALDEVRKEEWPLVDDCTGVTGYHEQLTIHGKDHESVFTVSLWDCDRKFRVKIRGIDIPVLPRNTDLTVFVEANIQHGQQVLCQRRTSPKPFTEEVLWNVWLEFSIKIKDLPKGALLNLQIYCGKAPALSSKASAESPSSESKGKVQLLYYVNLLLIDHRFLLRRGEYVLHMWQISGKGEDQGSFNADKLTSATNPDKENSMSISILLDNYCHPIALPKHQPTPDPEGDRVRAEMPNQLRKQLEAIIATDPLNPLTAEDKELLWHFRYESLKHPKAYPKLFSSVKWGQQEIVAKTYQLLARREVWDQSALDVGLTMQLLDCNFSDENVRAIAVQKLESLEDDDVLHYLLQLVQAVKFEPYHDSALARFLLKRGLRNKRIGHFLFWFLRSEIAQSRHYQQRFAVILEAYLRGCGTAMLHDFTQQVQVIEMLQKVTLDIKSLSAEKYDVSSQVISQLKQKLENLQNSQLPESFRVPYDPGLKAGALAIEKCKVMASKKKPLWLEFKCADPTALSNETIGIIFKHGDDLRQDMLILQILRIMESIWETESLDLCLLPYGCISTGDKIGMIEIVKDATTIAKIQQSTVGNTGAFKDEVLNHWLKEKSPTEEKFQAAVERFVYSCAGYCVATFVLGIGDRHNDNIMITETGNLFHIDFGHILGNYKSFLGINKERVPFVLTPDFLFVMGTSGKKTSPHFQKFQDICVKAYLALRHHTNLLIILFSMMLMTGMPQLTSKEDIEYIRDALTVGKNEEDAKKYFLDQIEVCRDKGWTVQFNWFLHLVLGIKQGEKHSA

With `COc1ccc(S(=O)(=O)n2ccc(-c3c(C)nc4ccc(-c5ccc(OC)c(OC)c5)nn34)n2)cc1` [Example 22, 6-(3,4-Dimethoxy-phenyl)-3-[1-(4-methoxy-benzenesulfonyl)-1H-pyrazol-3-yl]-2-methyl-imidazo[1,2-b]pyridazine], the IC50 is 781 nM on PI3K alfa, above 9100 nM at PI3K beta, 889 nM at PI3K delta and 1500 nM on PI3K gamma.

On to `CCS(=O)(=O)c1ccc(-c2c(C)nc3ccc(-c4ccc(OCCCN5CCCC5=O)cc4)nn23)cc1` [Example 107, 1-(3-{4-[3-(4-Ethanesulfonyl-phenyl)-2-methyl-imidazo[1,2-b]pyridazin-6-yl]-phenoxy}-propyl)-pyrrolidin-2-one], for which the concentration for half-maximal inhibition (IC50) on PI3K alfa was 4690 nM; at PI3K beta it was above 9100 nM; on PI3K delta, 2990 nM; at PI3K gamma, above 9100 nM.

On to `COc1ccc(-c2ccc(-c3ccc4nc(C)c(-c5ccc(N6CCOCC6)nc5)n4n3)cc2)cc1` [Example 18, 6-(4′-Methoxy-biphenyl-4-yl)-2-methyl-3-(6-morpholin-4-yl-pyridin-3-yl)-imidazo[1,2-b]pyridazine], for which the IC50 at PI3K alfa is above 25000 nM; at PI3K beta, 5160 nM; on PI3K delta, above 25000 nM; at PI3K gamma it was above 25000 nM.

As for `CCOc1ccc(-c2ccc3nc(C)c(-c4ccc(N5CCOCC5)nc4)n3n2)cc1OC` [Example 14, 6-(4-Ethoxy-3-methoxy-phenyl)-2-methyl-3-(6-morpholin-4-yl-pyridin-3-yl)-imidazo[1,2-b]pyridazine], the concentration for half-maximal inhibition (IC50) amounted to 138 nM at PI3K alfa, 5150 nM at PI3K beta, 2050 nM on PI3K delta and 688 nM on PI3K gamma.

As for `COc1cc(-c2ccc3nc(C)c(-c4cnc(N)c(C(F)(F)F)c4)n3n2)ccc1OCCNC(=O)c1cc(OC)c(OC)c(OC)c1` [Example 41], the IC50 on PI3K alfa is 294 nM; on PI3K beta it was above 9100 nM; at PI3K delta, above 9100 nM; at PI3K gamma, 933 nM.

For `COc1cc(-c2ccc3nc(C)c(-c4cnc(N)c(C(F)(F)F)c4)n3n2)ccc1OC1CCN(C(=O)OC(C)(C)C)CC1` [Example 92, 4-{4-[3-(6-Amino-5-trifluoromethyl-pyridin-3-yl)-2-methyl-imidazo[1,2-b]pyridazin-6-yl]-2-methoxy-phenoxy}-piperidine-1-carboxylic acid tert-butyl ester], the IC50 is 1780 nM on PI3K alfa, above 9100 nM on PI3K beta, above 9100 nM on PI3K delta and above 9100 nM on PI3K gamma.

As for `COc1cccc(C(=O)NCCOc2ccc(-c3ccc4nc(C)c(-c5cnc(N)c(C(F)(F)F)c5)n4n3)cc2OC)c1` [Example 39], the IC50 was 368 nM at PI3K alfa, above 9100 nM on PI3K beta, above 9100 nM at PI3K delta and above 9100 nM at PI3K gamma.

Regarding `COc1cc(-c2ccc3nc(C)c(-c4cnc(N)c(C(F)(F)F)c4)n3n2)ccc1OCCCNC(=O)OC(C)C` [Example 80], the IC50 at PI3K alfa is 175 nM; at PI3K beta, above 9100 nM; at PI3K delta it was 2700 nM; at PI3K gamma, 1930 nM.

For `COc1ccc(-c2ccc3nc(C)c(-c4ccc(N)nc4)n3n2)cc1OC` [Example 7], the IC50 at PI3K alfa is 96 nM; at PI3K beta, 976 nM; at PI3K delta, 694 nM; on PI3K gamma, 419 nM.

On to `Cc1nc2ccc(-c3ccc4c(c3)OCO4)nn2c1-c1cnc2[nH]ccc2c1` [Example 109, 6-Benzo[1,3]dioxol-5-yl-2-methyl-3-(1H-pyrrolo[2,3-b]pyridin-5-yl)-imidazo[1,2-b]pyridazine], for which the IC50 is 5910 nM on PI3K alfa, above 9100 nM at PI3K beta, 3940 nM at PI3K delta and above 9100 nM at PI3K gamma.

Turning to `COc1cc(-c2ccc3nc(C)c(-c4cnc(N)c(C(F)(F)F)c4)n3n2)ccc1OCCCN1CCNC1=O` [Example 96, 1-(3-{4-[3-(6-Amino-5-trifluoromethyl-pyridin-3-yl)-2-methyl-imidazo[1,2-b]pyridazin-6-yl]-2-methoxy-phenoxy}-propyl)-imidazolidin-2-one], the IC50 is 31 nM at PI3K alfa, 4860 nM on PI3K beta, 424 nM at PI3K delta and 805 nM on PI3K gamma.

Consider `COc1cc(-c2ccc3nc(C)c(-c4cnc(N)c(C(F)(F)F)c4)n3n2)ccc1OCCNC(=O)Nc1cccc(C(F)(F)F)c1` [Example 93, 1-(2-{4-[3-(6-Amino-5-trifluoromethyl-pyridin-3-yl)-2-methyl-imidazo[1,2-b]pyridazin-6-yl]-2-methoxy-phenoxy}-ethyl)-3-(3-trifluoromethyl-phenyl)-urea], for which the half-inhibitory concentration (IC50) is 2320 nM on PI3K alfa, above 9100 nM at PI3K beta, 4130 nM on PI3K delta and 3310 nM at PI3K gamma.

`COc1cc(-c2ccc3nc(C)c(-c4cnc(N)c(C(F)(F)F)c4)n3n2)ccc1OCCNC(=O)Nc1cccc(C#N)c1` [Example 47]: the IC50 on PI3K alfa is 1810 nM; on PI3K beta, above 9100 nM; at PI3K delta, above 9100 nM; at PI3K gamma it was 4500 nM.

Regarding `CCOc1ccc(-c2ccc3nc(C)c(-c4ccc(-c5ccc(C#N)nc5)nc4)n3n2)cc1OC` [Example 13, 5-[6-(4-Ethoxy-3-methoxy-phenyl)-2-methyl-imidazo[1,2-b]pyridazin-3-yl]-[2,3]bipyridinyl-6′-carbonitrile], the IC50 at PI3K alfa is 58 nM; at PI3K beta it was 4160 nM; at PI3K delta, above 25000 nM; at PI3K gamma, above 25000 nM.

On to `COc1ccc(-c2ccc3nc(C)c(-c4cncc(C#N)c4)n3n2)cc1OC` [Example 6], for which the IC50 turned out to be 455 nM at PI3K alfa, 4190 nM at PI3K beta, 2710 nM on PI3K delta and 1850 nM at PI3K gamma.

On to `Cc1nc2ccc(-c3ccc4c(c3)OCO4)nn2c1-c1cnc(N)c(C(F)(F)F)c1` [Example 108, 5-(6-Benzo[1,3]dioxol-5-yl-2-methyl-imidazo[1,2-b]pyridazin-3-yl)-3-trifluoromethyl-pyridin-2-ylamine], for which the half-inhibitory concentration (IC50) on PI3K alfa stood at 985 nM; at PI3K beta, 7080 nM; at PI3K delta, 2270 nM; at PI3K gamma it was 6790 nM.

For the compound `COc1cccc(NC(=O)NCCCOc2cc(-c3ccc4nc(C)c(-c5cnc(N)c(C(F)(F)F)c5)n4n3)ccc2OC)c1` [Example 89, 1-(3-{5-[3-(6-Amino-5-trifluoromethyl-pyridin-3-yl)-2-methyl-imidazo[1,2-b]pyridazin-6-yl]-2-methoxy-phenoxy}-propyl)-3-(3-methoxy-phenyl)-urea], the concentration for half-maximal inhibition (IC50) on PI3K alfa was 1640 nM; on PI3K beta, above 9100 nM; at PI3K delta it was above 9100 nM; on PI3K gamma it was 6860 nM.
